Patent US8071581B2, “Triazolopyridazine protein kinase modulators” (SGX Pharmaceuticals, Inc., priority 2006, dated 2011)

Experiments:
GTL16 = GTL16 cell assay (EC50); assay type: cell-based; settings: Homo sapiens, GTL 16
Description: Compounds were tested in the following assays in duplicate. 96-well XTT assay: Cells were grown in growth media containing various concentrations of compounds (duplicates) on a 96-well flat bottom plate for 72 hours at 37° C. in 5% CO2. The starting cell number was 5000 cells per well and volume was 120 μl. At the end of the 72-hour incubation, 40 μl of XTT labeling mixture (50:1 solution of sodium 3′-[1-(phenylaminocarbonyl)-3,4-tetrazolium]-bis(4-methoxy-6-nitro) benzene sulfonic acid hydrate and Electron-coupling reagent: PMS (N-methyl dibenzopyrazine methyl sulfate) were added to each well of the plate. After an additional 2-6 hours […] with a spectrophotometer.

[1] = molecular target: MET kinase (c-MET), kinase domain of human Met (Homo sapiens, UniProt P08581); assay: MET luminescence-based enzyme assay (Kinase-Glo)
MET kinase (c-MET), kinase domain of human Met, sequence (P08581 1078-1345 limits assumed): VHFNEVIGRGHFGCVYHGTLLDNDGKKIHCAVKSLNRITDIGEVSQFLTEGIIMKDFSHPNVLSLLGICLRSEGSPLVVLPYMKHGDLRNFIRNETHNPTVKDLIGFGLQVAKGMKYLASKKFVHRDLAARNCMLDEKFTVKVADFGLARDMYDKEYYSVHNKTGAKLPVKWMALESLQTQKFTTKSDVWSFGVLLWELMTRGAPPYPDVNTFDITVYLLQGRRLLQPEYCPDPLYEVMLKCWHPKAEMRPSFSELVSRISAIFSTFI

Structure (SMILES): Cc1ccc2nnc(Cc3c(F)cc4ncc(Br)cc4c3F)n2n1 [compound 28]
- EC50 (GTL16; Table 1): 100 to 1000 nM
- IC50 [1]: 1000 to 10000 nM

Structure (SMILES): N#Cc1cccc(-c2ccc3nnc(Cc4c(F)cc5ncccc5c4F)n3n2)c1 [compound 88]
- EC50 (GTL16; Table 1): < 100 nM
- IC50 [1]: < 100 nM

Structure (SMILES): Cn1cc(-c2cnc3ccc(Cc4nnc5cccnn45)cc3c2)cn1 [compound 139]
- EC50 (GTL16; Table 2): < 100 nM
- IC50 [1]: < 100 nM

Structure (SMILES): Fc1ccc(-c2ccc3nnc(Cc4ccc5ncccc5c4)n3n2)cc1C(F)(F)F [compound 77]
- EC50 (GTL16; Table 1): < 100 nM
- IC50 [1]: 100 to 1000 nM

Structure (SMILES): CC(=O)Nc1ccc(-c2ccc3nnc(Cc4ccc5ncccc5c4)n3n2)cc1 [compound 52]
- EC50 (GTL16; Table 1): 100 to 1000 nM
- IC50 [1]: < 100 nM

Structure (SMILES): CCc1ccc2nnc(Cc3ccc4ncc(-c5cnn(C)c5)cc4c3)n2n1 [compound 157, 6-(6-Ethyl-[1,2,4]triazolo[4,3-b]pyridazin-3-ylmethyl)-3-(1-methyl-1H-pyrazol-4-yl)-quinoline]
- EC50 (GTL16; Table 2): < 100 nM
- IC50 [1]: < 100 nM

Structure (SMILES): NC(=O)c1ccc(F)c(-c2ccc3nnc(Cc4ccc5ncccc5c4)n3n2)c1 [compound 4]
- EC50 (GTL16; Table 1): 1000 to 10000 nM
- IC50 [1]: 100 to 1000 nM

Structure (SMILES): Cn1cc(-c2cnc3ccc(Cc4nnc5ccc(-c6cnn(C)c6)nn45)cc3c2)cn1 [compound 141]
- EC50 (GTL16; Table 2): < 100 nM
- IC50 [1]: < 100 nM

Structure (SMILES): CCc1ccc2nnc(Cc3cc4cc(-c5cnn(C)c5)cnc4cc3F)n2n1 [compound 165]
- EC50 (GTL16; Table 2): < 100 nM
- IC50 [1]: < 100 nM

Structure (SMILES): Cc1ccc2nnc(Cc3ccc4ncc(-c5cnn(CCO)c5)cc4c3)n2n1 [compound 144, 2-{4-[6-(6-Methyl-[1,2,4]triazolo[4,3-b]pyridazin-3-ylmethyl)-quinolin-3-yl]pyrazol-1-yl}-ethanol]
- EC50 (GTL16; Table 2): 100 to 1000 nM
- IC50 [1]: < 100 nM

Structure (SMILES): CCNC(=O)c1ccc(-c2ccc3nnc(Cc4ccc5ncccc5c4)n3n2)cc1F [compound 75]
- EC50 (GTL16; Table 1): < 100 nM
- IC50 [1]: < 100 nM

Structure (SMILES): CN(C)c1ccc2nnc(Cc3ccc4ncc(-c5cnn(C)c5)cc4c3)n2n1 [compound 159, Dimethyl-{3-[3-(1-methyl-1H-pyrazol-4-yl)-quinolin-6-ylmethyl]-[1,2,4]triazolo[4,3-b]pyridazin-6-yl}-amine]
- EC50 (GTL16; Table 2): < 100 nM
- IC50 [1]: < 100 nM

Structure (SMILES): Clc1nc2ccc(Cc3nnc4ccc(-c5ccccc5)nn34)cc2s1 [compound 44]
- IC50 [1]: 1000 to 10000 nM

Structure (SMILES): Cc1ccc2nnc(Cc3ccc4ncc(-c5cnn(CC(=O)O)c5)cc4c3)n2n1 [compound 134]
- EC50 (GTL16; Table 2): 100 to 1000 nM
- IC50 [1]: < 100 nM

Structure (SMILES): CCc1ccc2nnc(Cc3ccc4ncc(Br)cc4c3F)n2n1 [compound 121]
- IC50 [1]: 100 to 1000 nM

Structure (SMILES): COCCn1cc(-c2cnc3ccc(Cc4nnc5ccc(C)nn45)cc3c2)cn1 [compound 147]
- EC50 (GTL16; Table 2): < 100 nM
- IC50 [1]: < 100 nM

Structure (SMILES): Cc1ccc2nnc(Cc3ccc4ncc(-c5cnn(CC6CNC6)c5)cc4c3)n2n1 [compound 155, 3-(1-Azetidin-3-ylmethyl-1H-pyrazol-4-yl)-6-(6-methyl-[1,2,4]triazolo[4,3-b]pyridazin-3-ylmethyl)-quinoline]
- EC50 (GTL16; Table 2): 100 to 1000 nM
- IC50 [1]: < 100 nM

Structure (SMILES): Cc1ccc2nnc(Cn3ccc4ncc(-c5cnn(C)c5)cc43)n2n1 [compound 178]
- IC50 [1]: 1000 to 10000 nM

Structure (SMILES): Cc1ccc2nnc(Cc3c(F)cc4ncc(-c5cnn(CC(=O)O)c5)cc4c3F)n2n1 [compound 151]
- EC50 (GTL16; Table 2): 1000 to 10000 nM
- IC50 [1]: < 100 nM

Structure (SMILES): CNC(=O)c1ccc(-c2ccc3nnc(Cc4ccc5ncsc5c4)n3n2)cc1F [compound 101]
- EC50 (GTL16; Table 1): 100 to 1000 nM
- IC50 [1]: < 100 nM

Structure (SMILES): N#Cc1cccc(-c2ccc3nnc(Cc4ccc5ncccc5c4)n3n2)c1 [compound 59]
- EC50 (GTL16; Table 1): < 100 nM

Structure (SMILES): Cc1cccc(-c2ccc3nnc(Cc4ccc5ncccc5c4)n3n2)c1 [compound 35]
- EC50 (GTL16; Table 1): 100 to 1000 nM
- IC50 [1]: < 100 nM

Structure (SMILES): Cc1ccc2nnc(C(C)c3ccc4ncc(-c5cnn(C)c5)cc4c3)n2n1 (stereo not drawn) [compound 191]
- IC50 [1]: < 100 nM

Structure (SMILES): Cc1cc2ncccc2cc1Cc1nnc2ccc(-c3cnn(C)c3)nn12 [compound 84]
- EC50 (GTL16; Table 1): < 100 nM
- IC50 [1]: < 100 nM

Structure (SMILES): Cc1ccc2nnc(Cc3ccc4ncc(-c5cc(F)cc(F)c5)cc4c3)n2n1 [compound 128]
- EC50 (GTL16; Table 2): 1000 to 10000 nM
- IC50 [1]: 100 to 1000 nM

Structure (SMILES): Clc1ccc2nnc(Cc3ccc4ncccc4c3)n2n1 [compound 15, 6-(6-Chloro-[1,2,4]triazolo[4,3-b]pyridazin-3-ylmethyl)-quinoline]
- EC50 (GTL16; Table 1): 1000 to 10000 nM

Structure (SMILES): Cc1ccc2nnc(Cc3ccc4ncc(-c5cnn(C6CN(S(C)(=O)=O)C6)c5)cc4c3)n2n1 [compound 182]
- EC50 (GTL16; Table 2): 100 to 1000 nM
- IC50 [1]: < 100 nM

Structure (SMILES): Cc1ccc2nnc(Cc3ccc4ncc(-c5cnn(CC6CN(C(=O)OC(C)(C)C)C6)c5)cc4c3)n2n1 [compound 169]
- EC50 (GTL16; Table 2): < 100 nM
- IC50 [1]: < 100 nM

Structure (SMILES): CNC(=O)c1cccc(-c2ccc3nnc(Cc4ccc5ncccc5c4)n3n2)c1 [compound 58]
- EC50 (GTL16; Table 1): 1000 to 10000 nM
- IC50 [1]: 100 to 1000 nM

Structure (SMILES): Cc1ccc2nnc(Cc3ccc4ncc(-c5cnn(CCC(N)=O)c5)cc4c3)n2n1 [compound 154]
- EC50 (GTL16; Table 2): 100 to 1000 nM
- IC50 [1]: < 100 nM

Structure (SMILES): Fc1ccc(Oc2ccc3nnc(Cc4ccc5ncccc5c4)n3n2)cc1F [compound 7, 6-[6-(3,4-Difluoro-phenoxy)-[1,2,4]triazolo[4,3-b]pyridazin-3-ylmethyl]-quinoline]
- EC50 (GTL16; Table 1): 100 to 1000 nM
- IC50 [1]: 100 to 1000 nM

Structure (SMILES): Cc1ccc2nnc(Cc3ccc4ncc(-c5cnn(C6CNC6)c5)cc4c3)n2n1 [compound 153]
- EC50 (GTL16; Table 2): 100 to 1000 nM
- IC50 [1]: < 100 nM

Structure (SMILES): CN(C)C(=O)c1cc(F)cc(-c2ccc3nnc(Cc4ccc5ncccc5c4)n3n2)c1 [compound 71]
- EC50 (GTL16; Table 1): 100 to 1000 nM
- IC50 [1]: 100 to 1000 nM

Structure (SMILES): Cc1ccc2nnc(Cc3c(F)cc4ncc(-c5cnn(C)c5)cc4c3F)n2n1 [compound 145, 5,7-Difluoro-3-(1-methyl-1H-pyrazol-4-yl)-6-(6-methyl-[1,2,4]triazolo[4,3b]pyridazin-3-ylmethyl)-quinoline]
- EC50 (GTL16; Table 2): < 100 nM
- IC50 [1]: < 100 nM

Structure (SMILES): C[C@H](c1ccc2ncsc2c1)c1nnc2ccc(-c3cccc(C#N)c3)nn12 [compound 104, I-3-[3-(1-Benzothiazol-6-yl-ethyl)-[1,2,4]triazolo[4,3-b]pyridazin-6-yl]-benzonitrile]
- IC50 [1]: 100 to 1000 nM

Structure (SMILES): CCc1ccc2nnc(Cc3ccc4ncc(-c5cnn(C6CNC6)c5)cc4c3)n2n1 [compound 189]
- IC50 [1]: < 100 nM

Structure (SMILES): CCc1ccc2nnc(Cc3ccc4ncc(-c5cnn(C6CN(CC)C6)c5)cc4c3F)n2n1 [compound 186]
- IC50 [1]: < 100 nM

Structure (SMILES): Cc1ccc2nnc(Cc3ccc4ncccc4c3)n2n1 [compound 105]
- IC50 [1]: 100 to 1000 nM

Structure (SMILES): CCc1ccc2nnc(Cc3c(F)cc4ncc(Br)cc4c3F)n2n1 [compound 115]
- IC50 [1]: 100 to 1000 nM

Structure (SMILES): Cc1ccc2nnc(Cc3ccc4ncc(C#N)cc4c3)n2n1 [compound 110, 6-(6-Methyl-[1,2,4]triazolo[4,3-b]pyridazin-3-ylmethyl)-quinoline-3-carbonitrile]
- IC50 [1]: 1000 to 10000 nM

Structure (SMILES): Cc1ccc2nnc(Cc3ccc4ncc(-c5cnn(C6CN(C)C6)c5)cc4c3)n2n1 [compound 183]
- IC50 [1]: < 100 nM

Structure (SMILES): Fc1ccc(-c2ccc3nnc(Cc4ccc5ncccc5c4)n3n2)cc1F [compound 73]
- EC50 (GTL16; Table 1): < 100 nM

Structure (SMILES): Cc1ccc2nnc(Cc3ccc4ncc(Br)cc4c3)n2n1 [compound 106]
- IC50 [1]: 100 to 1000 nM

Structure (SMILES): CCc1ccc2nnc(Cc3c(F)cc4ncc(-c5cnn(C6CNC6)c5)cc4c3F)n2n1 [compound 185]
- IC50 [1]: < 100 nM

Structure (SMILES): CC(C)(c1ccc2ncccc2c1)c1nnc2ccc(-c3ccccc3)nn12 [compound 18]
- IC50 [1]: 10000 to 50000 nM

Structure (SMILES): c1ccc(-c2ccc3nnc(CCc4ccc5ncccc5c4)n3n2)cc1 [compound 39]
- IC50 [1]: 10000 to 50000 nM

Structure (SMILES): Cc1ccc2nnc(C(C)c3ccc4ncc(Br)cc4c3)n2n1 (stereo not drawn) [compound 119, 3-Bromo-6-[1-(6-methyl-[1,2,4]triazolo[4,3-b]pyridazin-3-yl)-ethyl]-quinoline]
- IC50 [1]: < 100 nM

Structure (SMILES): Cc1cc(Cc2nnc3ccc(-c4cnn(C)c4)nn23)cc2cccnc12 [compound 91]
- IC50 [1]: 1000 to 10000 nM

Structure (SMILES): Fc1cc(F)cc(-c2ccc3nnc(Cc4ccc5ncsc5c4)n3n2)c1 [compound 97]
- IC50 [1]: 100 to 1000 nM

Structure (SMILES): Cn1cc(-c2ccc3nnc(Cc4cc(F)c5ncccc5c4)n3n2)cn1 [compound 92]
- IC50 [1]: 1000 to 10000 nM

Structure (SMILES): CCN1CC(n2cc(-c3cnc4cc(F)c(Cc5nnc6ccc(C)nn56)c(F)c4c3)cn2)C1 [compound 188]
- IC50 [1]: < 100 nM

Structure (SMILES): Cc1ccc2nnc(Cc3ccc4ncc(-n5cccn5)cc4c3)n2n1 [compound 127]
- IC50 [1]: 100 to 1000 nM

Structure (SMILES): CCc1ccc2nnc(Cc3ccc4ncc(-c5cnn(C6CNC6)c5)cc4c3F)n2n1 [compound 184]
- IC50 [1]: < 100 nM

Structure (SMILES): Cc1ccc2cc(Cc3nnc4ccc(-c5ccccc5)nn34)ccc2n1 [compound 38, 2-Methyl-6-(6-phenyl-[1,2,4]triazolo[4,3-b]pyridazin-3-ylmethyl)-quinoline]
- IC50 [1]: 1000 to 10000 nM

Structure (SMILES): CCc1ccc2nnc(Cc3c(F)cc4ncc(-c5cnn(C6CN(CC)C6)c5)cc4c3F)n2n1 [compound 187]
- IC50 [1]: < 100 nM

Structure (SMILES): CCN1CC(n2cc(-c3cnc4ccc(C(C)c5nnc6ccc(C)nn56)cc4c3)cn2)C1 (stereo not drawn) [compound 190]
- IC50 [1]: < 100 nM

Structure (SMILES): CCc1cnc2ccc(Cc3nnc4ccc(C)nn34)cc2c1 [compound 116, 3-Ethyl-6-(6-methyl-[1,2,4]triazolo[4,3-b]pyridazin-3-ylmethyl)-quinoline]
- IC50 [1]: < 100 nM

Structure (SMILES): N#Cc1ccc(-c2ccc3nnc(Cc4ccc5ncccc5c4)n3n2)cc1 [compound 60]
- EC50 (GTL16; Table 1): 100 to 1000 nM

Structure (SMILES): Cc1ccc2nnc(Cc3ccc4ncc(-c5c[nH]nc5C)cc4c3)n2n1 [compound 150]
- IC50 [1]: 100 to 1000 nM

Structure (SMILES): Cn1cc(-c2ccc3nnc(Cc4c[nH]c5ncccc45)n3n2)cn1 [compound 108, 6-(1-Methyl-1H-pyrazol-4-yl)-3-(1H-pyrrolo[2,3-b]pyridine-3-ylmethyl)-[1,2,4]triazolo[4,3-b]pyridazine]
- EC50 (GTL16; Table 1): < 100 nM

Structure (SMILES): c1ccc(-c2ccc3nnc([C@H]4C[C@@H]4c4ccc5ncccc5c4)n3n2)cc1 [compound 40]
- IC50 [1]: 10000 to 50000 nM

Structure (SMILES): Fc1cccc(-c2ccc3nnc(Cc4ccc5ncsc5c4)n3n2)c1 [compound 93]
- IC50 [1]: 1000 to 10000 nM
